Test [1] has as its system IFNβ production in CD11b+ monocytes. Kind of test: IFN-beta induction in CD11b+ monocytes from healthy donor PBMC. The format is cell-based, human. Conditions: CD11b+ monocyte cultures, 20 hours, mean ± SEM. The method, then:
(§1) CD11b^+ cells were isolated from healthy PBMCs as well as Pleural effusion samples using Miltenyi isolation kit according to manufacturer's protocol. Cells were seeded in 96 well plates at the density of 300,000 cells/wells, and then treated with various concentrations of compounds for 20 hours. After 20 hours, IFN-beta secretion levels were evaluated in the culture supernatants by MSD singleplex assay. EC50 values were calculated using Prism software.
(§2) Different naked STING agonisst and PD-L1-targeted small molecule-STING agonist conjugates were added to CD11b^+ monocytes cultures isolated from healthy donor blood or lung cancer patients' pleural effusions. Culture supernatants were collected 20 hours later and IFNβ production were determined using MSD singleplex assay.

In test [2] the target is T1, PD-L1 (Homo sapiens (Human), UniProt Q9NZQ7). The experiment in a line: PD-L1 surface levels on HEK293T STING reporter cells, low PD-L1. It counts as cell-based. The method, then:
(§3) To determine PD-L1 expression on HEK cells after treatment of PD-L1-small molecule conjugated STING agonists, cells were harvested at 20 hours post-treatment. Single cell suspensions were then stained with phycoerythrin-conjugated anti-PD-L1 antibody (BD Bioscience), and the PD-L1 expression were then analyzed by flow cytometry. Mean fluorescence intensity was used as the relative level of surface PD-L1 expression on cells (FIG. 1 and Table 6).
(§4) Also, cells were stained with PE-conjugated anti-human PD-L1 antibody to determine surface PD-L1 expression. Cell acquisition was performed on BD LSRFortessa X-20 (BD Biosciences). Data was analyzed using FlowJo software. IC50 values were calculated using Prism Software.

Test [3] concerns the target T1, PD-L1. The experiment in a line: PD-L1 surface levels on HEK293T STING reporter cells, high PD-L1. The format is cell-based. The method, then:
as §3, §4

Test [4] deals with IFNβ production in CD11b+ monocytes. The experiment in a line: IFN-beta induction in CD11b+ monocytes from lung cancer pleural effusions. The format is cell-based, human. Conditions: CD11b+ monocyte cultures, lung cancer pleural effusion, 20 hours, read-out: EC50 for IFNβ induction, Cancer patient. The method, then: as §1, §2
In test [5] the test system is IRF3 activation in PD-L1 high HEK293T STING reporter cell line. The experiment in a line: IRF3 activation in HEK293T STING reporter cells, high PD-L1. The format is cell-based, human. Conditions: for EC50: 20 hours; for Potency shift: with compound P27 (1 μM) versus no competition. The method, then: (§5) HEK293T STING reporter cell line was purchased from Invivogen and expressed low level of PD-L1. This cell line was then engineered at Incyte Research Institute to overexpress human PD-L1. Both PD-L1 high and PD-L1 low HEK293T cell lines were plated at 100,000 cells/100 μL/well in 10% fetal calf serum-containing DMEM culture medium in a 96-well flat bottom plate. Serial dilutions of PD-L1 small molecule-conjugated STING agonists were then added to the corresponding wells, and incubated for 20 hours at 37° C. In a competition study setting, 1 μM of a PD-L1 small molecule was added in the corresponding wells to compete with the binding of PD-L1 small molecule-conjugated STING agonists. At the end of the incubation, the culture supernatants were carefully removed from each well, and the amount of IRF3 activation was determined by adding Quanti-Blue substrate in accordance with the manufacturer's protocol.
(§6) 293T-Dual hSTING-R232 (ISG/KI-IFNb) cells that were generated from 293T-Dual Null (ISG/KI-IFNb) cells by stable transfection of the R232 isoform of human STING were purchased from Invivogen (Invivogen #293d-r232).
(§7) This cell line expresses an ISRE-inducible SEAP (secreted embryonic alkaline phosphatase) reporter construct, which monitors the activation of interferon regulatory factor (IRF) and its binding to ISRE (IFN-stimulated response elements). These reporter cells express low level of PD-L1. Human PD-L1 was then overexpressed in these cells through stable transfection.
(§8) These 293T-Dual hSTING-R232 reporter cells as well as293T-Dual hSTING-R232 reporter cells overexpressing huPD-L1 were treated with various concentrations of STING compounds for 20 hours. After 20 hours, interferon regulatory factor (IRF) activity was assessed by measuring SEAP levels in the supernatant using QUNTI-Blue. EC50 values were generated by curve fit in Prism software.

The test system of test [6] is IRF3 activation in PD-L1 low HEK293T STING reporter cell line. Kind of test: IRF3 activation in HEK293T STING reporter cells, low PD-L1. It counts as cell-based, human. Conditions: 20 hours, read-out: IRF Activation EC50 (nM), Low PD-L1. The method, then: as §5, §6, §7, §8
A further test deals with IRF3. Kind of test: IRF3 activation assay in THP-1 Dual cells. It counts as cell-based. The settings on record: Homo sapiens, THP-1, Table 4C; read-out: THP1 IRF3 EC50. The gist of the method:
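THP-1 Dual cells (100,000/well) were treated with serially diluted compound for 24 h at 37° C, 5% CO2. IRF3 reporter activity in supernatant was read with QUANTI-Blue as absorbance at 620-655 nm after 2 h, with untreated cells as negative control. EC50 came from fitting percent control activity against log concentration.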

Test [7] concerns the target T1, PD-L1. Kind of test: Direct method for PD-L1 internalization in CHO-PD-L1 cells. The format is cell-based. Conditions: 40 nM pHrodo-labelled antibody, 5 to 16 hours, versus IgG control. The method, then: Endocytosis or internalization of PD-L1 was measured by two different methods, one direct and the other indirect. In the direct method, an anti PD-L1 antibody labeled with a pH sensitive fluorophore is incubated with PD-L1 expressing cells. Upon internalization and trafficking of the antibody-PD-L1 complex to low pH endosomes, fluorescence is emitted. In the indirect method, cell surface PD-L1 is measured using an anti PD-L1 antibody after incubation with a compound to determine remaining, non-internalized receptor.
For the direct measurement, biotinylated anti-PD-L1 antibody (BPS Biosciences) or Atezolizumab, biotinylated with a 20-fold excess of biotin using the EZ-Link™ Sulfo-NHS-LC-Biotin reagents (ThermoFisher), were labeled with pHrodo™ Red Avidin (Life Technologies) conjugate. Equimolar solutions of the antibody and pHrodo™ Red avidin (4.2 uM each) were incubated on ice for 2 hours in the dark in a buffer composed of 40 mM Tris-HCl, pH 8.0, 110 mM NaCl, 2.2 mM KCl, 20% glycerol, and 1% bovine serum albumin The mixture was centrifuged for 1 minute at 1000 rpm, and the clarified supernatant was used in subsequent assays. […] The cells were analyzed by flow cytometry, and internalized antibody-receptor complex was detected using a C6 Accuri Flow Cytometer (excitation with […] and emission collected with a 585/40 bandpass filter).

The mark [8] stands for this setting: high PD-L1 cells, read-out: IRF Activation EC50 (nM), High PD-L1.
Where [9] appears, read: no competition, read-out: IRF Activation EC50 (nM), No competition.
Where [10] appears, read: read-out: IRF Activation EC50 (nM), With compound P27 (1 μM), competition with compound P27 1 μM.

Where two headings read alike, the source gives them in different places.

T1 sequence (Q9NZQ7 19-290): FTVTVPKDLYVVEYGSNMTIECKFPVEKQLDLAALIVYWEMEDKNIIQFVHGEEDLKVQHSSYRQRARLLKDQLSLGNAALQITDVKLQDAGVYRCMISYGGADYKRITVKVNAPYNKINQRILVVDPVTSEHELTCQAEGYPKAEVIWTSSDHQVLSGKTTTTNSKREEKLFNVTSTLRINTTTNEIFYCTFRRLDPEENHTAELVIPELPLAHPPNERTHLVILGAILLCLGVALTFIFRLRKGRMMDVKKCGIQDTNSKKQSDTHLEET

Regarding `CCn1nc(C)cc1C(=O)Nc1nc2cc(C(N)=O)cc(OC)c2n1C/C=C/Cn1c(NC(=O)c2cc(C)nn2CC)nc2cc(C(N)=O)cc(OCCCNC(=O)[C@H](CC(=O)O)NC(=O)[C@H](CC(=O)O)NC(=O)[C@H](CCCNC(=N)N)NC(=O)[C@H](CC(=O)O)NC(=O)CCCN3CCc4c(nc(C(=O)Nc5cccc(-c6cccc(NC(=O)c7nc8c(n7C)CCN(CCCC(=O)O)C8)c6Cl)c5Cl)n4C)C3)c21` [Example 1], the concentration giving a half-maximal response (EC50) in test [1] was 5030 ± 1260 nM; in test [4] it was 406 nM; in test [5] (setting [8]) it was less than 50 nM; in test [5] (setting [9]), less than 50 nM; in test [5] (setting [10]), 200 to 1000 nM; in test [6] it was 200 to 1000 nM. Besides, the IC50 was greater than 1000 nM against PD-L1 [2] and less than 50 nM at PD-L1 [3]. Moreover, in test [5], the Potency shift is greater than 100.

For the molecule `CCn1nc(C)cc1C(=O)Nc1nc2cc(C(N)=O)cc(OC)c2n1C/C=C/Cn1c(NC(=O)c2cc(C)nn2CC)nc2cc(C(N)=O)cc(OCCCNC(=O)CCNC(=O)OCc3ccc(NC(=O)[C@H](CCCNC(N)=O)NC(=O)[C@@H](NC(=O)CCCN4CCc5c(nc(C(=O)Nc6cccc(-c7cccc(NC(=O)c8nc9c(n8C)CCN(CCCC(=O)O)C9)c7Cl)c6Cl)n5C)C4)C(C)C)cc3)c21` [Example 2], the IC50 was greater than 1000 nM at PD-L1 [2] and less than 50 nM at PD-L1 [3]. Also, the EC50 in test [5] (setting [8]) was less than 50 nM; in test [5] (setting [9]), less than 50 nM; in test [5] (setting [10]) it was 50 to 200 nM; in test [6], 50 to 200 nM. For the same molecule, the Potency shift in test [5] is greater than 20.

On to `CCn1nc(C)cc1C(=O)Nc1nc2cc(C(N)=O)cc(OC)c2n1C/C=C/Cn1c(NC(=O)c2cc(C)nn2CC)nc2cc(C(N)=O)cc(OCCCNC(=O)CCNC(=O)OCCSSC[C@H](NC(=O)[C@H](CC(=O)O)NC(=O)[C@H](CC(=O)O)NC(=O)[C@H](CCCNC(=N)N)NC(=O)[C@H](CC(=O)O)NC(=O)CCCN3CCc4c(nc(C(=O)Nc5cccc(-c6cccc(NC(=O)c7nc8c(n7C)CCN(CCCC(=O)O)C8)c6Cl)c5Cl)n4C)C3)C(=O)O)c21` [Example 5], for which the IC50 on PD-L1 [2] was greater than 1000 nM; on PD-L1 [3], less than 50 nM. For the same molecule, the EC50 in test [5] (setting [8]) is less than 50 nM; in test [5] (setting [9]), less than 50 nM; in test [5] (setting [10]), 200 to 1000 nM; in test [6], 200 to 1000 nM. For the same molecule, in test [5], the Potency shift is listed as greater than 20.

For `CCn1nc(C)cc1C(=O)Nc1nc2cc(C(N)=O)cc(OCCCNC(=O)[C@H](CC(=O)O)NC(=O)[C@H](CC(=O)O)NC(=O)[C@H](CCCNC(=N)N)NC(=O)[C@H](CC(=O)O)NC(=O)CCCN3CCc4c(nc(C(=O)Nc5cccc(-c6cccc(NC(=O)c7nc8c(n7C)CCN(CCCC(=O)O)C8)c6Cl)c5Cl)n4C)C3)c2n1C/C=C/Cn1c2nc(-c3cc(C)nn3CC)ncc2c2cc(C(N)=O)cc(OC)c21` [Example 7], the concentration for a half-maximal effect (EC50) in test [1] was 2010 ± 308 nM; in test [4] it was 643 nM; in test [5] (setting [8]), less than 50 nM; in test [6], 50 to 200 nM. For the same molecule, the IC50 against PD-L1 [3] was less than 50 nM.

On to `CCn1nc(C)cc1C(=O)Nc1nc2cc(C(N)=O)cc(OCCCOC(=O)NCCC(=O)O)c2n1C/C=C/Cn1c2nc(-c3cc(C)nn3CC)ncc2c2cc(C(N)=O)cc(OCCCOC)c21` [Example S48, (E)-3-(((3-((5-carbamoyl-1-(4-(6-carbamoyl-2-(1-ethyl-3-methyl-1H-pyrazol-5-yl)-8-(3-methoxypropoxy)-9H-pyrimido[4,5-b]indol-9-yl)but-2-en-1-yl)-2-(1-ethyl-3-methyl-1H-pyrazole-5-carboxamido)-1H-benzo[d]imidazol-7-yl)oxy)propoxy)carbonyl)amino)propanoic acid], for which the EC50 in test [1] (Homo sapiens) is 64 ± 12 nM; in test [4] (Homo sapiens) it was 38 nM; in the test on IRF3, no more than 50 nM.

Turning to Atezolizumab, the “PD-L1 internalization (direct method)” value in the test with PD-L1 [7] was “dos not cause PD-L1 internalization”.

For orientation: EC50 means the concentration needed to bring the measured effect to its halfway point. As a reminder, the IC50 is the point on the concentration scale where inhibition reaches its midpoint. The low end stands for greater potency, the high end for weaker potency.
